Laboratory results published in patent US6495514B1, “Method for reducing inflammation and inducing an analgesic effect and compounds thereof” (Mercer University, priority 1998, dated 2002).
Marks after values point to notes of the source that are not given here.

How the values were obtained:
carrageenan edema = assay: Carrageenan-induced hind paw edema; type: in vivo, rat; conditions: for inhibition of hind paw edema: 2 hours post-administration
Method: Carrageenan, bradykinin and serotonin edemas were induced in anesthetized, male Sprague-Dawley rats (150-175 g) by injecting 0.5 mg (0.05 ml) of carrageenan, 50 μg (0.1 ml) of bradykinin and 20 μg (0.1 ml) of serotonin, respectively, into the subplantar region of the left hind paws the contralateral hind paws received saline only. Hind paw volumes (edema) were measured plethysmographically by displacement of mercury at 0, 1, 2, 3, 4 and 6 hours post administration of carrageenan, 30 minutes after bradykinin and 1 hour after serotonin. Swelling was determined by subtracting the volume (ml) of the right hind . paw from that of the left. […] In those experiments in which PBA was delivered continuously to rats over a 7 day period prior to the administration of carrageenan, ALZET osmotic pumps (Palo Alto, Calif.) were filled with drug and implanted subcutaneously between the scapulae into anesthetized rats.

[1] = tested on: acetylcholine-induced writhing; assay: Acetylcholine-induced writhing; type: in vivo, mice
Method: (§1) The effects of PBA on the perception of pain was evaluated using several different animal models. The spinally-mediated tail-flick response to heat in fasted rats (250-290 g) was used by measuring the withdrawal latency following immersion of the rodent's tail (2″) into hot water (50° C.). PBA at several different dose levels was administered subcutaneously and the time to tail withdrawal was measured at 0, 15, 30 and 60 minutes post-drug administration. The analgesic effects of PBA were also evaluated in fasted mice following the injection of either phenyl-p-quinone or acetylcholine. Male, ND4 Swiss mice (15-20 g) were dosed subcutaneously with PBA or saline followed immediately by the injection of phenyl-p-quinone (2 mg/kg i.p.). After 5 minutes, the number of writhes (abdominal constrictions along with contortion of the trunk and extension of the hindlimbs) was counted over the next 10 minutes. When acetylcholine (6 mg/kg i.p.) was used as the noxious agent, PBA was administered subcutaneously 15 minutes before the administration of the algesic agent. The number of writhes produced was counted over the last 5 minutes following the algesic agent.

bradykinin edema = assay: Bradykinin-induced hind paw edema; type: in vivo, rat
Method: (§2) Carrageenan, bradykinin and serotonin edemas were induced in anesthetized, male Sprague-Dawley rats (150-175 g) by injecting 0.5 mg (0.05 ml) of carrageenan, 50 μg (0.1 ml) of bradykinin and 20 μg (0.1 ml) of serotonin, respectively, into the subplantar region of the left hind paws the contralateral hind paws received saline only. Hind paw volumes (edema) were measured plethysmographically by displacement of mercury at 0, 1, 2, 3, 4 and 6 hours post administration of carrageenan, 30 minutes after bradykinin and 1 hour after serotonin. Swelling was determined by subtracting the volume (ml) of the right hind . paw from that of the left. PBA was administered subcutaneously 30 minutes before the administration of carrageenan and serotonin and one hour before bradykinin. In those experiments in which PBA was delivered continuously to rats over a 7 day period prior to the administration of carrageenan, ALZET osmotic pumps (Palo Alto, Calif.) were filled with drug and implanted subcutaneously between the scapulae into anesthetized rats.

substance P (SP) = assay: SP levels in hind paw tissue (RIA); type: in vivo, rat; conditions: 75 mg/kg/hr for 7 days, prior to carrageenan (time 0)
Method: The effects of PBA on levels of SP were evaluated using a modification of a method previously disclosed in Ahmed et al. (Peptides 15, 317-322, 1994). Briefly, at different times following the administration of carrageenan, hind paw ankle joints were removed, immediately frozen on dry ice and stored at −80° C. until assayed for SP. After the frozen sample was weighed, it was boiled for 7 minutes as a 10% w/v solution of 2M acetic acid in 4% EDTA, pH 3.5, cut into small pieces and boiled for an additional 7 minutes. Samples were then homogenized for 60 seconds in a Brinkmann Polytron (Westbury, N.Y.), sonicated for 30 seconds and centrifuged at 3000×g for 20 minutes. Supernatants were lyophilized and then diluted in radioimmunoassay (RIA) buffer prior to analysis. SP levels were determined from these samples by using a commercially available RIA kit (INCSTAR, Stillwater, Minn.). Initial experiments conducted to insure the specificity of the substance P antibody for SP found the cross-reactivity for the glycine-extended precursor to be 1.7% at concentrations up to 100 nanograms/ml.

[2] = target: T1, peptidylamidoglycolate lyase (PGL) (Rattus norvegicus, UniProt P14925); assay: Serum PGL activity after PBA dosing in rats; type: in vivo; conditions: 500 mg/kg s.c., 24 hour observation period
T1 construct: from tissue; host or cells: rat serum (tail vein blood)
T1 sequence (P14925 36-976): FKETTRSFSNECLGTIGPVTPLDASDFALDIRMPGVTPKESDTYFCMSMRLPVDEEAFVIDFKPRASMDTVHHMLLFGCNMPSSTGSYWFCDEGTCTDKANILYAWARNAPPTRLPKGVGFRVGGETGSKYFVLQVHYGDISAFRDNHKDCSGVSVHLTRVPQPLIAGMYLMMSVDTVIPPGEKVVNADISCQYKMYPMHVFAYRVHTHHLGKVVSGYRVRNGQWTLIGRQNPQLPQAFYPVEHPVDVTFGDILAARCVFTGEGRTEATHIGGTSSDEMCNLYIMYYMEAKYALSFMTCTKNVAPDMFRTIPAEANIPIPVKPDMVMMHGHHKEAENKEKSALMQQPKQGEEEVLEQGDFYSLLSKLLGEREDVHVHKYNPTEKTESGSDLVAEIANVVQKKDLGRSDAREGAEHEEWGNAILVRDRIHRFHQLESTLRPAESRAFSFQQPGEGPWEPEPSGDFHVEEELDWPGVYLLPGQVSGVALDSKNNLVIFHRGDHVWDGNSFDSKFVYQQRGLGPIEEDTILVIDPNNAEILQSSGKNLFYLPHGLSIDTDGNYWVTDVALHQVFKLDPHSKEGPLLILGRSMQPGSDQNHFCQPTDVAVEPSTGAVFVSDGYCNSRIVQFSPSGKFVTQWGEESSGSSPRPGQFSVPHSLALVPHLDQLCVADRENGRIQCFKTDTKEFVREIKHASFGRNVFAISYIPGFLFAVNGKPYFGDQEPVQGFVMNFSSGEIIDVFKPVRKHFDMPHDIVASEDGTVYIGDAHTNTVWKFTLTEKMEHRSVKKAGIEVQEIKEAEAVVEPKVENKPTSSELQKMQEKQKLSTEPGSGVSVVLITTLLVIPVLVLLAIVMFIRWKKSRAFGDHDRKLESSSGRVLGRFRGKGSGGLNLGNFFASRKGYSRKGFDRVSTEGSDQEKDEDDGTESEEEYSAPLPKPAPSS
Method: Male rats were fasted overnight and anesthetized with ether to obtain blood samples for measuring PAM and PGL activity in serum. Blood (0.5 ml) was collected from the tail vein at different times and spun at 14,000×g for 5 minutes. Serum was collected and stored at −70° C. until assayed. PAM activity was determined based on the procedure disclosed in Katopodis et al. (Biochemistry 30, 6189-6194, 1991). Briefly, 50 μl of serum sample (enzyme source) was added to 200 μl of the assay mixture which contained tripeptide TNP-D-Tyr-Val-Gly as the enzyme substrate (40 μM), copper sulfate (15 μM), L-ascorbate (4 mM) and catalase (1 mg/ml) in MES buffer (100 mM, pH 6.5). After a 30 minute incubation period at 37° C., an aliquot (90 μl) was quenched with 10 μl of HClO4 (3M) and centrifuged at 14,000×g for 5 minutes. A 20 μl aliquot was removed and used to assay for product using reverse phase HPLC at 344 nm on a C8 column with a mobile phase of 56% water/0.1% trifluoroacetic acid/44% acetonitrile at a flow rate of 1.5 mL/min. In this manner, both TNP-D-Tyr-Val-NH2 as well as the TNP-D-Tyr-Val-α-hydroxyGly were quantitated simultaneously. […] Enzyme activity was expressed as milliunits per milliliter which is the amount of enzyme required to produce one nanomole of product.

[3] = target: T2, peptidylglycine α-monooxygenase (PAM) (Rattus norvegicus, UniProt P14925); assay: Serum PAM activity after PBA dosing in rats; type: in vivo; conditions: for inhibition at 500 mg/kg: rat, sc
T2 construct: 50 μl of serum sample (enzyme source) was added to 200 μl of the assay mixture; from tissue; host or cells: rat serum (tail vein blood)
T2 sequence (P14925 36-976): T1 sequence (P14925 36-976)
Method: Male rats were fasted overnight and anesthetized with ether to obtain blood samples for measuring PAM and PGL activity in serum. Blood (0.5 ml) was collected from the tail vein at different times and spun at 14,000×g for 5 minutes. Serum was collected and stored at −70° C. until assayed. PAM activity was determined based on the procedure disclosed in Katopodis et al. (Biochemistry 30, 6189-6194, 1991). Briefly, 50 μl of serum sample (enzyme source) was added to 200 μl of the assay mixture which contained tripeptide TNP-D-Tyr-Val-Gly as the enzyme substrate (40 μM), copper sulfate (15 μM), L-ascorbate (4 mM) and catalase (1 mg/ml) in MES buffer (100 mM, pH 6.5). After a 30 minute incubation period at 37° C., an aliquot (90 μl) was quenched with 10 μl of HClO4 (3M) and centrifuged at 14,000×g for 5 minutes. A 20 μl aliquot was removed and used to assay for product using reverse phase HPLC at 344 nm on a C8 column with a mobile phase of 56% water/0.1% trifluoroacetic acid/44% acetonitrile at a flow rate of 1.5 mL/min. In this manner, both TNP-D-Tyr-Val-NH2 as well as the TNP-D-Tyr-Val-α-hydroxyGly were quantitated simultaneously. PGL activity was assayed by measuring the conversion of α-hydroxyhippuric acid to benzamide as disclosed in Katopodis and May (Biochemistry 29, 4541-4548, 1990). Briefly, 50 μl of the serum sample was added to 200 μl of a 100 mM MES buffer solution (pH 6.5) containing 2 mM of the enzyme substrate. After incubation for 30 minutes at 37° C., an aliquot of the assay mixture was quenched with 3 M HClO4, centrifuged at 14,000×g and 20 μl used to analyze for benzamide product by HPLC using a C8 reverse phase column. Product detection was performed at 225 nm using a mobile phase of 80% water/0.1% trifluoroacetic acid/20% acetonitrile at a flow rate of 1.5 mL/min. Enzyme activity was expressed as milliunits per milliliter which is the amount of enzyme required to produce one nanomole of product.

[4] = tested on: phenyl-p-quinone-induced writhing; assay: Phenyl-p-quinone-induced writhing; type: in vivo, mice
Method: as §1

tail withdrawal latency = assay: Tail-flick response to heat (50° C. water); type: in vivo, rat; conditions: s.c., doses up to 750 mg/kg; 15, 30 and 60 minutes post-drug
Method: as §1

serotonin edema = assay: Serotonin-induced hind paw edema; type: in vivo, rat
Method: as §2

[5] = dose that produced significant inhibition of carrageenan edema

- effect on serum PGL activity [2]: no effect
- serum PAM activity compared to controls ([3]; 75 mg/kg/hr for 7 days, prior to carrageenan (time 0)): significantly reduced
- dose dependence of inhibition of serum PAM activity ([3]; 50, 150 and 500 mg/kg, normal rats): dose-related
- sustained reduction in serum PAM activity ([3]; continuous release 50 to 100 mg/kg/hr s.c. via osmotic pumps, throughout 7 day dosing period): > 75%
- inhibition at 500 mg/kg ([3]; 500 mg/kg s.c. single dose, by 6 hours): 43%
- inhibition at 500 mg/kg ([3]; 500 mg/kg s.c. single dose, conscious rats, within 1 hour, remained during first 3 hours): > 90%
SMILES: O=C(O)C/C=C/c1ccccc1 [PBA, trans-4-phenyl-3-butenoic acid]
- inhibition of carrageenan edema (carrageenan edema; 75 mg/kg/hr for 1 week before carrageenan, each time period): significant inhibition
- activity on carrageenan edema (carrageenan edema; 100 mg/kg dose): did not show any activity
- inhibition of hind paw swelling (carrageenan edema; 100 mg/kg, administered 2 hours after induction of inflammation): only effective at hour 3
- inhibition of hind paw edema (carrageenan edema; 250 mg/kg s.c. 30 minutes before carrageenan): 43%
- inhibition of hind paw swelling (carrageenan edema; 250 mg/kg, administered 2 hours after induction, up to 6 hours post-phlogistic agent): significant inhibition of hind paw swelling
- inhibition of hind paw edema (carrageenan edema; 500 mg/kg s.c. 30 minutes before carrageenan): 67%
- inhibition of hind paw swelling (carrageenan edema; 500 mg/kg, administered 2 hours after induction, up to 6 hours post-phlogistic agent): significant inhibition of hind paw swelling
- Inhibition (%) (carrageenan edema; Carrageenan, PBA s.c. 30 minutes before, measured 2 hours after, P < .05): 66.7^b %
- Hind Paw Volume (mL ± S.E.M.) (carrageenan edema; Carrageenan, PBA s.c. 30 minutes before, measured 2 hours after, n = 8): 0.31 ± 0.07 mL
- dose dependence of inhibition of hind paw edema (carrageenan edema; s.c. 30 minutes before carrageenan, at 2 and 3 hours post-administration): dose-related inhibition
- analgesic effect in writhing assay ([1]; 100 mg/kg dose): significant analgesic effect
- ED50 ([1]; Mus musculus, sc, s.c. 15 minutes before acetylcholine, percentage of animals per group that writhed (all or none)): 105 mg/kg
- Inhibition (%) (bradykinin edema; Bradykinin 50 μg, PBA s.c. 1 hour before, measured 30 minutes after): 25.6%
- Hind Paw Volume (mL ± S.E.M.) (bradykinin edema; Bradykinin 50 μg, PBA s.c. 1 hour before, measured 30 minutes after, n = 8): 0.29 ± 0.04 mL
- inhibitory activity on edema produced by bradykinin (bradykinin edema; [5]): lacked significant inhibitory activity
- SP levels in hind paw tissue compared to controls (substance P (SP)): significantly reduced
- serum PAM activity vs control ([3]; 500 mg/kg s.c. single dose, after 24 hours): not significantly different from control values
- analgesic effect in writhing assay ([4]; 100 mg/kg dose): significant analgesic effect
- inhibition of writhing ([4]; 250 mg/kg s.c.): greater than 85%
- effect on time to tail withdrawal (tail withdrawal latency): did not have any effect
- Inhibition (%) (serotonin edema; Serotonin 20 μg, PBA s.c. 30 minutes before, measured 1 hour after): 18.5%
- Hind Paw Volume (mL ± S.E.M.) (serotonin edema; Serotonin 20 μg, PBA s.c. 30 minutes before, measured 1 hour after, n = 8): 0.66 ± 0.03 mL
- inhibitory activity on edema produced by serotonin (serotonin edema; [5]): lacked significant inhibitory activity
